Values joined by “and” are separate entries in the source; they are usually repeats but may differ in a detail not shown here. Equal values may be shown once.
Legend:
[1] = system: human aortic endothelial cells (HAECs); experiment: Prostaglandin production in HAECs with/without fatty acids and AdCOX-1 transfection, EIA (Example II); format: cell-based; conditions: for enhancement of PGI2 production: HAECs, fatty acid stimulation (Discussion); for PGE1/PGE2 ratio: fatty acid-stimulated naïve HAECs; for PGE1 production / PGE2 production / PGI2 production: naïve (nontransfected) HAECs, 20 μM fatty acid, 45 minutes
[2] = system: human coronary artery smooth muscle cells (HCASMCs); experiment: Prostaglandin production in HCASMCs with/without fatty acids and AdCOX-1 transfection, EIA (Example II); format: cell-based; conditions: for PGE1/PGE2 ratio: fatty acid-stimulated naïve HCASMCs; for increase of PGE1 production by stimulation: naive HCASMCs vs no stimulation; for PGE1 production / PGE2 production / PGI2 production: naïve (nontransfected) HCASMCs, 20 μM fatty acid, 45 minutes
[3] = system: balloon-injured carotid arteries of New Zealand White rabbits; format: in vivo, New Zealand White rabbit; conditions: no vector (PBS), 20 μM fatty acid stimulation
Procedure: Balloon injury and local delivery of the COX-1 gene to carotid arteries of New Zealand White (NZW) rabbits were done according to a protocol approved by the animal committee at the University of Texas Houston Health Science Center. As described previously^31, rabbit anesthesia was performed prior to each surgery. In brief, a no. 4 catheter introducer was introduced into the right femoral artery of anesthetized rabbits. Heparin at a dose of 150 units/kg was then administered to prevent arterial thrombosis during angioplasty. A balloon catheter (2.5×20 mm, Baxter Healthcare Corporation) was inserted into the femoral introducer and advanced to the right carotid artery with the assist of a guide wire under fluoroscopy. Balloon angioplasty was performed using 5 inflations to 8 atm for 30 second each time. One minute reperfusion was allowed between inflations. After angioplasty, the balloon was retracted 15 mm, and the proximal end of the damaged artery was ligated over the tip of the deflated angioplasty catheter with 2-0 silk over umbilical tape, to prevent further injury. All blood was removed from the damaged artery by repeated flushing with saline through the wire port of the angioplasty catheter. Then the distal portion of the damaged artery was ligated. After removing the remaining saline, 1×10^10 PFU/ml AdCOX, Adnull or 1 ml of PBS were gradually introduced into the isolated artery, respectively. After incubating the virus in the artery for 30 min, the artery was flushed to remove virus or PBS and washed with saline. Finally, all incisions were repaired and the rabbits were monitored until they had recovered from anesthesia. Upon completing of surgery, the cut regions of rabbit were repaired and rabbits were recovered.
Balloon injury and local delivery of the COX-1 gene to carotid arteries of NZW rabbits (n=24) were performed as described above. Eight rabbits were treated with AdCOX, and a like number were respectively treated with Adnull and PBS.
Three days after local gene delivery, balloon-injured rabbits were sacrificed, and their carotid arteries were harvested as 2-cm-long artery rings. Each artery ring was cut open to expose the lumen and then into 6 small pieces. The pieces were washed 3 times with Dulbecco's modified Eagle's medium (DME; Invitrogen) and incubated with DMEM supplemented with 20 μM AA or DGLA and 2% FBS at 37° C. for 45 minutes. In each treatment group, 4 rabbits provided injured arteries for AA stimulation and 4 provided them for DGLA stimulation. Supernatants were collected and used for prostaglandin assays as described above. Each arterial piece was then dried and weighed.

[4] = clinical use; cited from earlier work
[5] = system: HAEC; experiment: Western blot of COX-1 and COX-2 expression in HAEC; format: cell-based, human; conditions: normal HAEC, 10 ng/ml for 24 hour
[6] = system: HCASMC; experiment: Western blot of COX-1 and COX-2 expression in HCASMC; format: cell-based, human; conditions: normal HCASMC, 10 ng/ml for 24 hour
[7] = naïve HCASMCs vs no stimulation

Row | Compound | enhancement of PGI2 production [1] [%] | PGE1/PGE2 ratio [1] | increase of PGI2 production by stimulation (in words) ([1]; naive HAECs vs no stimulation) | PGE1 production [1] [ng/10^6 cells] | PGE2 production [1] [ng/10^6 cells] | PGI2 production [1] [ng/10^6 cells] | PGE1/PGE2 ratio [2] | increase of PGE1 production by stimulation [2] [fold] | PGE1 production [2] [ng/10^6 cells] | PGE2 production [2] [ng/10^6 cells] | PGI2 production [2] [ng/10^6 cells] | PGE1 production [3] [pg/mg arterial tissue] | PGE2 production [3] [pg/mg arterial tissue] | PGI2 production [3] [pg/mg arterial tissue] | further results
1 | CCCCC/C=C\C/C=C\C/C=C\CCCCCCC(=O)O [DGLA, dihommo-γ-linolenic acid] | 5 | 3.22 and 3 | only slightly | 5.00 ± 0.51 | 1.55 ± 0.37 | 2.15 ± 0.33 | 1.46 and 1.5 | > 4 | 32.34 ± 2.41 | 22.05 ± 1.45 | 9.30 ± 1.09 | 47 ± 3.90 | 51 ± 20 | 443 ± 201 | increase of PGE1 production by stimulation ([1]; naive HAECs vs no stimulation): > 3 fold; suppression of PGE2 production by stimulation ([1]; naïve HAECs vs no stimulation): 35-50%; lowering of PGI2 production by stimulation [2, 7]: 28%; suppression of PGE2 production by stimulation [2, 7]: 35-50%
2 | CCCCC(C)(O)C/C=C/[C@H]1[C@H](O)CC(=O)[C@@H]1CCCCCCC(=O)OC (mixture of isomers) [Misoprostol] |  |  |  |  |  |  |  |  |  |  |  |  |  |  | adverse side effects (including diarrhea and abdominal pain), patients affected [4]: 14-40 % of patients
3 | IL-1β: interleukin-1β, used to induce COX-2 in normal cells |  |  |  |  |  |  |  |  |  |  |  |  |  |  | COX-2 induction (immunoblot) [5]: capable of prompting COX-2 induction; COX-2 induction (immunoblot) [6]: capable of prompting COX-2 induction
4 | CCCCC/C=C\C/C=C\C/C=C\C/C=C\CCCC(=O)O [AA, arachidonic acid] | 25 | 0.16 | one third | 1.10 ± 0.41 | 6.17 ± 0.83 | 2.70 ± 0.13 | 0.27 | > 2 | 14.04 ± 1.5 | 51.8 ± 2.46 | 37.12 ± 2.54 | 31 ± 19 | 74 ± 42 | 432 ± 135 | PGE1 production, times lower than in DGLA-stimulated counterparts ([1]; AA-stimulated naïve HAECs): > 4 times; increase of PGE2 production by stimulation ([1]; naïve HAECs vs no stimulation): ~2 fold; suppression of PGE1 production by stimulation ([1]; naïve HAECs vs no stimulation): ~24%; PGE1 production, times lower than in DGLA-stimulated counterparts ([2]; AA-stimulated naïve HCASMCs): > 2 times; increase of PGE2 production by stimulation [2, 7]: ~2 fold; increase of PGI2 production by stimulation [2, 7]: ~3 fold

Source: patent US20050130925A1, “Method and composition for enhancing PGE1 production in vascular endothelial and smooth muscle cells” (The Board of Regents of the University of Texas System, priority 2003, published 2005)
